Experimental data reported in patent publication EP0007672A1, “Isocyanoalkenes, process and useful intermediates for their preparation, pharmaceutical and fungicidal preparations containing those isocyanoalkenes and the use of the fungicidal preparations in agriculture” (GIST-BROCADES N.V., priority 1978, dated 1980).
In brackets after ≈: the same amount, converted by molar mass. Read-outs that look alike come from different tables or passages of the source.

How the values were obtained:
Experiment in all cases: MIC (Minimum Inhibitory Concentration)
Format in all cases: cell-based
Candida albicans = tested on: Candida albicans
From the text: (§1) In addition they may be used for combatting plant diseases, in particular as fungicides. A list of MIC (Minimum Inhibitory Concentration) values for a number of microorganisms is listed herebelow. The figures in the column headings refer to the compounds prepared according to the experimental examples in comparison with the spectrum of 1-[2-(2,4-dichlorophenyl)-2-{(2,4-dichlorophenyl)-methoxy} -ethyl7-1H-imidazole (better known under the name of miconazole, c.f. Merck Index 9th Ed. page 6047) or natamycin (pimaricin, c.f. Merck Index 9th Ed. page 7233).

Pasteurella multocida = Pasteurella multocida A 723; read-out: MIC values
From the text: as §1

[1] = tested on: Streptococcus haemolyticus; conditions: Streptococcus haemolyticus A 1088; read-out: MIC values
From the text: as §1

Trichophyton equinum = tested on: Trichophyton equinum
From the text: as §1

[2] = tested on: Trichophyton mentagrophytus
From the text: as §1

Trichophyton quickeaneum = Trichophyton quickeaneum A 2040; read-out: MIC values
From the text: as §1

Trichophyton rubrum = tested on: Trichophyton rubrum
From the text: as §1

[3] = tested on: Trichophyton schoenleinii; conditions: Trichophyton schoenleinii 435-63; read-out: MIC values
From the text: as §1

Trichophyton tonsurans = Trichophyton tonsurans 561-50; read-out: MIC values
From the text: as §1

Trichophyton violoceum = Trichophyton violoceum 442-62; read-out: MIC values
From the text: as §1

[4] = Candida albicans A 7, read-out: MIC values
[5] = Candida albicans A 3140, read-out: MIC values
[6] = Candida albicans A 3141, read-out: MIC values
[7] = Candida albicans A 3142, read-out: MIC values
[8] = Candida albicans A 3143, read-out: MIC values
[9] = Candida albicans A 3144, read-out: MIC values
[10] = Candida albicans A 3145, read-out: MIC values
[11] = Candida albicans A 3165, read-out: MIC values
[12] = Candida albicans A 3166, read-out: MIC values
[13] = Candida albicans A 3167, read-out: MIC values
[14] = Candida albicans A 3168, read-out: MIC values
[15] = Candida albicans A 3169, read-out: MIC values
[16] = Candida albicans A 3171, read-out: MIC values
[17] = Candida albicans A 3184, read-out: MIC values
[18] = Candida albicans A 3190, read-out: MIC values
[19] = Candida albicans A 3191, read-out: MIC values
[20] = Candida albicans A 3192, read-out: MIC values
[21] = Candida albicans A 3194, read-out: MIC values
[22] = Candida albicans A 3196, read-out: MIC values
[23] = Trichophyton equinum 182-76, read-out: MIC values
[24] = Trichophyton equinum 856-71, read-out: MIC values
[25] = Trichophyton mentagrophytus 367-68, read-out: MIC values
[26] = Trichophyton mentagrophytus 421-67, read-out: MIC values
[27] = Trichophyton mentagrophytus A 3252, read-out: MIC values
[28] = Trichophyton mentagrophytus R 177, read-out: MIC values
[29] = Trichophyton mentagrophytus R 178, read-out: MIC values
[30] = Trichophyton mentagrophytus RRL 305, read-out: MIC values
[31] = Trichophyton rubrum 218-65, read-out: MIC values
[32] = Trichophyton rubrum 494-62, read-out: MIC values
[33] = Trichophyton rubrum A 810, read-out: MIC values

Compound	MIC (Candida albicans; [4])	MIC (Candida albicans; [5])	MIC (Candida albicans; [6])	MIC (Candida albicans; [7])	MIC (Candida albicans; [8])	MIC (Candida albicans; [9])	MIC (Candida albicans; [10])	MIC (Candida albicans; [11])	MIC (Candida albicans; [12])	MIC (Candida albicans; [13])	MIC (Candida albicans; [14])	MIC (Candida albicans; [15])	MIC (Candida albicans; [16])	MIC (Candida albicans; [17])	MIC (Candida albicans; [18])	MIC (Candida albicans; [19])	MIC (Candida albicans; [20])	MIC (Candida albicans; [21])	MIC (Candida albicans; [22])	MIC (Pasteurella multocida)	further results
[C-]#[N+]C(C1=CCSCC1)S(=O)(=O)c1ccc(C)cc1 (stereo not drawn) [Example 16b, a-(3,4-dehydrothian-4-yl)-a-(4-toluenesulphonyl)-methylisocyanide]	3 µg/mL (≈ 10.2 µM)	3 µg/mL (≈ 10.2 µM)	3 µg/mL (≈ 10.2 µM)	3 µg/mL (≈ 10.2 µM)	3 µg/mL (≈ 10.2 µM)	6 µg/mL (≈ 20.4 µM)	6 µg/mL (≈ 20.4 µM)	3 µg/mL (≈ 10.2 µM)	3 µg/mL (≈ 10.2 µM)	3 µg/mL (≈ 10.2 µM)	3 µg/mL (≈ 10.2 µM)	3 µg/mL (≈ 10.2 µM)	3 µg/mL (≈ 10.2 µM)	3 µg/mL (≈ 10.2 µM)	3 µg/mL (≈ 10.2 µM)	6 µg/mL (≈ 20.4 µM)	3 µg/mL (≈ 10.2 µM)	3 µg/mL (≈ 10.2 µM)	3 µg/mL (≈ 10.2 µM)	3 µg/mL (≈ 10.2 µM)	MIC [1]: 50 µg/mL (≈ 170 µM); MIC (Trichophyton equinum; [23]): 6 µg/mL (≈ 20.4 µM); MIC (Trichophyton equinum; [24]): 12.5 µg/mL (≈ 42.6 µM); MIC [2, 25]: 6 µg/mL (≈ 20.4 µM); MIC [2, 26]: 6 µg/mL (≈ 20.4 µM); MIC [2, 27]: 12.5 µg/mL (≈ 42.6 µM); MIC [2, 28]: 6 µg/mL (≈ 20.4 µM); MIC [2, 29]: 12.5 µg/mL (≈ 42.6 µM); MIC [2, 30]: 12.5 µg/mL (≈ 42.6 µM); MIC (Trichophyton quickeaneum): 6 µg/mL (≈ 20.4 µM); MIC (Trichophyton rubrum; [31]): 1.5 µg/mL (≈ 5.11 µM); MIC (Trichophyton rubrum; [32]): 12.5 µg/mL (≈ 42.6 µM); MIC (Trichophyton rubrum; [33]): 1.5 µg/mL (≈ 5.11 µM); MIC [3]: 1.5 µg/mL (≈ 5.11 µM); MIC (Trichophyton tonsurans): 0.8 µg/mL (≈ 2.73 µM); MIC (Trichophyton violoceum): 3 µg/mL (≈ 10.2 µM)
[C-]#[N+]C(=C(C)c1ccccc1)S(=O)(=O)c1ccc(C)cc1 [Example 12, 2-phenyl-1-isocyano-1-(4-toluenesulphonyl)-1-propene]	3 µg/mL (≈ 10.1 µM)	6 µg/mL (≈ 20.2 µM)	6 µg/mL (≈ 20.2 µM)	6 µg/mL (≈ 20.2 µM)	6 µg/mL (≈ 20.2 µM)	3 µg/mL (≈ 10.1 µM)	3 µg/mL (≈ 10.1 µM)	3 µg/mL (≈ 10.1 µM)	3 µg/mL (≈ 10.1 µM)	3 µg/mL (≈ 10.1 µM)	6 µg/mL (≈ 20.2 µM)	6 µg/mL (≈ 20.2 µM)	6 µg/mL (≈ 20.2 µM)	6 µg/mL (≈ 20.2 µM)	6 µg/mL (≈ 20.2 µM)	6 µg/mL (≈ 20.2 µM)	3 µg/mL (≈ 10.1 µM)	3 µg/mL (≈ 10.1 µM)	6 µg/mL (≈ 20.2 µM)	3 µg/mL (≈ 10.1 µM)	MIC [1]: 50 µg/mL (≈ 168 µM); MIC (Trichophyton equinum; [23]): 12.5 µg/mL (≈ 42 µM); MIC (Trichophyton equinum; [24]): 6 µg/mL (≈ 20.2 µM); MIC [2, 25]: 12.5 µg/mL (≈ 42 µM); MIC [2, 26]: 6 µg/mL (≈ 20.2 µM); MIC [2, 27]: 6 µg/mL (≈ 20.2 µM); MIC [2, 28]: 3 µg/mL (≈ 10.1 µM); MIC [2, 29]: 6 µg/mL (≈ 20.2 µM); MIC [2, 30]: 25 µg/mL (≈ 84.1 µM); MIC (Trichophyton quickeaneum): 6 µg/mL (≈ 20.2 µM); MIC (Trichophyton rubrum; [31]): 3 µg/mL (≈ 10.1 µM); MIC (Trichophyton rubrum; [32]): 6 µg/mL (≈ 20.2 µM); MIC (Trichophyton rubrum; [33]): 3 µg/mL (≈ 10.1 µM); MIC [3]: 1.5 µg/mL (≈ 5.04 µM); MIC (Trichophyton tonsurans): 0.1 µg/mL (≈ 0.336 µM); MIC (Trichophyton violoceum): 3 µg/mL (≈ 10.1 µM)
